Measurements as given in ChEMBL document CHEMBL1201862, “PubChem BioAssay data set” (2004).
Active and inactive are the calls of the source.

Experiments:
[1] = target: T1, Kappa-type opioid receptor (Homo sapiens, UniProt P41145); format: functional
[2] = target: Beta-galactosidase (Escherichia coli, UniProt Q8VNN2); format: functional
[3] = test system: Vero; assay: cells; format: functional; conditions: Chlorocebus sabaeus
[4] = target: T1, Kappa-type opioid receptor; format: functional; remark: listed apart in the source
[5] = cells; format: functional, cell-based
[6] = target: T2, Nuclear receptor subfamily 0 group B member 1 (Homo sapiens, UniProt P51843); format: functional, cell-based;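 also: HEK293T cells transfected with SF-1 and DAX-1 plus StAR promoter luciferase reporter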
T2 sequence (P51843 whole entry): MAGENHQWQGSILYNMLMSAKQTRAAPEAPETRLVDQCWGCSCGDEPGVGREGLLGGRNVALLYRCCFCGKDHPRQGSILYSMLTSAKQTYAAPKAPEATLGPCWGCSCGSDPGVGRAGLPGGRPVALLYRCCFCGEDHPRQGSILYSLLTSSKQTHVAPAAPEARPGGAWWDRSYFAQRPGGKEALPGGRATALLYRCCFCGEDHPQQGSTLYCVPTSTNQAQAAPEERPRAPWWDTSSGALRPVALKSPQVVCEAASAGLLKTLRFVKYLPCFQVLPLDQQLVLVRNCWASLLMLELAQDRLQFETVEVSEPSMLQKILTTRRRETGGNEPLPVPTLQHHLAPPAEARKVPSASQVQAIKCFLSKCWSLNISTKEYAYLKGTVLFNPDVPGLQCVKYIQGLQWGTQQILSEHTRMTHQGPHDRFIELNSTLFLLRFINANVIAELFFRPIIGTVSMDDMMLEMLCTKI

[7] = target: Mu-type opioid receptor (Homo sapiens, UniProt P35372); format: functional, cell-based;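 also: U2OS cells with beta-arrestin recruitment to OPRM1 by beta-gal complementation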
Sequence of Mu-type opioid receptor (P35372 whole entry): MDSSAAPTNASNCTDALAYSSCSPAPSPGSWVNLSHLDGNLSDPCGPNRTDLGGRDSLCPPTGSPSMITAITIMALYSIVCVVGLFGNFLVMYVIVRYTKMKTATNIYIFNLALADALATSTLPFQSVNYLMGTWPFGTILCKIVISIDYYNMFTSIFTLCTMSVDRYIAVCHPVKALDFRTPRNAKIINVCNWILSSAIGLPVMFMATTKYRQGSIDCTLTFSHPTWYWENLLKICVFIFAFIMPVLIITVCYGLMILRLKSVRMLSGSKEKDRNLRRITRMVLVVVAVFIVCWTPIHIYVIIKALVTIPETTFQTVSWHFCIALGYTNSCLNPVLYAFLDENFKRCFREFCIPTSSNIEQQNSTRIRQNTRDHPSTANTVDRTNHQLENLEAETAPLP

[8] = target: 5-hydroxytryptamine receptor 2A (Mus musculus, UniProt P35363); format: functional, cell-based;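 also: CHO-K1 cells with tagged receptor and beta-arrestin; agonist potency measured as compound-induced activation of the receptor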
Sequence of 5-hydroxytryptamine receptor 2A (P35363 whole entry): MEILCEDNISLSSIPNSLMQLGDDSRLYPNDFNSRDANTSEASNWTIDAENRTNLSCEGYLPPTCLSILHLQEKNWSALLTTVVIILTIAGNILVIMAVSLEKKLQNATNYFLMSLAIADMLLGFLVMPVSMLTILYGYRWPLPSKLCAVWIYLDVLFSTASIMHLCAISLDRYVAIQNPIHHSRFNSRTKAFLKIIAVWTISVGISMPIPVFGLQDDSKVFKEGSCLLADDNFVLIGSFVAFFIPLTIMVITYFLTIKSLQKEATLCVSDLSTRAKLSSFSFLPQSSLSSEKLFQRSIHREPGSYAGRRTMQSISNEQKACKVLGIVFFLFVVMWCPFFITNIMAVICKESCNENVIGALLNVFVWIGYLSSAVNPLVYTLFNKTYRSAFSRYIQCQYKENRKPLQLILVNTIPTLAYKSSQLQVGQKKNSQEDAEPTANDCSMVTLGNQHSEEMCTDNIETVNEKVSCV

[9] = target: Potassium voltage-gated channel subfamily KQT member 2 (Rattus norvegicus, UniProt O88943); assay: KCNQ2 potassium channel inhibitors, dose response, cell-based, automated electrophysiology, set II, rat KCNQ2 (AID 588637); format: functional
Sequence of Potassium voltage-gated channel subfamily KQT member 2 (O88943 whole entry): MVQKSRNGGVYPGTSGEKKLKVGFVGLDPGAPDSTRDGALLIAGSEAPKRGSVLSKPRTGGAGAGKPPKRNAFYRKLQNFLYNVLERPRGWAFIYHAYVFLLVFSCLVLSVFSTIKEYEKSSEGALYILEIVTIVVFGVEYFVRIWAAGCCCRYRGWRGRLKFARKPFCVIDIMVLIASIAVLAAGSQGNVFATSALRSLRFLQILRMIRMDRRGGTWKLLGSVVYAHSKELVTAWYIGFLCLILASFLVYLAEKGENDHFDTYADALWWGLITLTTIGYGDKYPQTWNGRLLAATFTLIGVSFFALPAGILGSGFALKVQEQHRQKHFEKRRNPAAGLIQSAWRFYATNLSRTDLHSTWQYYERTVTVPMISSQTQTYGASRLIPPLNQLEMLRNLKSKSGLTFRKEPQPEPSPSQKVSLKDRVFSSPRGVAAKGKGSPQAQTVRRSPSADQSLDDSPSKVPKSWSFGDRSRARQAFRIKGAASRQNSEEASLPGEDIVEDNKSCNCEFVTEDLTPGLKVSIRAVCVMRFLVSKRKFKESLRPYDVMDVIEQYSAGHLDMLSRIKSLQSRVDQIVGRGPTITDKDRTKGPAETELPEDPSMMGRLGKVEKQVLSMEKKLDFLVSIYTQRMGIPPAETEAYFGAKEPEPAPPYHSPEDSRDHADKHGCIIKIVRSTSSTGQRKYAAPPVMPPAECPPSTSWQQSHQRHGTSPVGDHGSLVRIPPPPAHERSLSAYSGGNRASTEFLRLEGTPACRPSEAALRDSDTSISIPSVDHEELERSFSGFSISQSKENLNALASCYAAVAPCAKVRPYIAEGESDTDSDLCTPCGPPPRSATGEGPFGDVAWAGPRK

[10] = target: Voltage-dependent T-type calcium channel subunit alpha-1H (Homo sapiens, UniProt O95180); format: functional;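 also: channel activity triggered by adding a high calcium stimulation buffer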
[11] = test system: Vero; assay: cells; format: functional, cell-based; conditions: Chlorocebus sabaeus
[12] = target: T3, DNA repair and recombination protein RAD54-like (Homo sapiens, UniProt Q92698); assay: inhibitors of human RAD54 branch migration, confirmation, biochemical, fluorescence, cherry-picked samples, dose series (AID 651657); format: functional
T3 sequence (Q92698 whole entry): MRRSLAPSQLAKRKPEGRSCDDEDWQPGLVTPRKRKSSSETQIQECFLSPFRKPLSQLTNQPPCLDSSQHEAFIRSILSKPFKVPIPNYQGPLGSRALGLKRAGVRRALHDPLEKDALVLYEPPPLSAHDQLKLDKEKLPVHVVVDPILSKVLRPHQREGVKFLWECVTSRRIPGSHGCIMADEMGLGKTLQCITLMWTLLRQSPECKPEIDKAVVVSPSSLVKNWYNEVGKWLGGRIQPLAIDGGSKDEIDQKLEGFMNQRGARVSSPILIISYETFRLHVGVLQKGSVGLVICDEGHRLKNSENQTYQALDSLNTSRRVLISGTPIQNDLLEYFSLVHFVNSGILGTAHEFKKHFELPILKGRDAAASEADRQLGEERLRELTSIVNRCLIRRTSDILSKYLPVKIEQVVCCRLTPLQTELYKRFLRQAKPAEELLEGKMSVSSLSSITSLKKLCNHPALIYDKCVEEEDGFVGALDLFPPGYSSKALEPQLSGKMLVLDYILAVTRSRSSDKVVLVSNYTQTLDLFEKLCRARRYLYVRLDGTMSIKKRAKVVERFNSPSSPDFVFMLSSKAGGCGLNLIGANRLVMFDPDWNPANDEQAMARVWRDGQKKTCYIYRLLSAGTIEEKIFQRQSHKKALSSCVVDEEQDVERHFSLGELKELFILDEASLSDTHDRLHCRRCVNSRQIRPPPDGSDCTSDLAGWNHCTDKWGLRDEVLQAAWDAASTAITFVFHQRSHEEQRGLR

[13] = target: T4, Adenosylmethionine-8-amino-7-oxononanoate aminotransferase (Mycobacterium tuberculosis, UniProt P9WQ81); assay: Mycobacterium tuberculosis BioA enzyme inhibitor Measured in Biochemical System Using Plate Reader - 2163-02_Inhibitor_Dose_CherryPick_Activity.; format: functional, Mycobacterium tuberculosis UT205
T4 sequence (P9WQ81 whole entry): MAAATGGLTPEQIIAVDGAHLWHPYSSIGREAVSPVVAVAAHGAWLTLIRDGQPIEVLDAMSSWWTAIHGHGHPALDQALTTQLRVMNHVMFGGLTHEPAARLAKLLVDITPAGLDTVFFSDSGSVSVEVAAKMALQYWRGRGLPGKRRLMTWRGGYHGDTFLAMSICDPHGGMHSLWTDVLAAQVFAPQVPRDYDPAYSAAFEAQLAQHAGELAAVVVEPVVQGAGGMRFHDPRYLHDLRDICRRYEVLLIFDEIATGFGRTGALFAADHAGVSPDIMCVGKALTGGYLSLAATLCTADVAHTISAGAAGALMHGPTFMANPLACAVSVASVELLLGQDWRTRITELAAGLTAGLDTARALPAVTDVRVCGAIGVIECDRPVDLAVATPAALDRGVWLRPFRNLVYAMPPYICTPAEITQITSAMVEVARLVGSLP

[14] = target: T5, DNA repair protein RAD52 homolog (Homo sapiens, UniProt P43351); format: functional, biochemical
T5 sequence (P43351 whole entry): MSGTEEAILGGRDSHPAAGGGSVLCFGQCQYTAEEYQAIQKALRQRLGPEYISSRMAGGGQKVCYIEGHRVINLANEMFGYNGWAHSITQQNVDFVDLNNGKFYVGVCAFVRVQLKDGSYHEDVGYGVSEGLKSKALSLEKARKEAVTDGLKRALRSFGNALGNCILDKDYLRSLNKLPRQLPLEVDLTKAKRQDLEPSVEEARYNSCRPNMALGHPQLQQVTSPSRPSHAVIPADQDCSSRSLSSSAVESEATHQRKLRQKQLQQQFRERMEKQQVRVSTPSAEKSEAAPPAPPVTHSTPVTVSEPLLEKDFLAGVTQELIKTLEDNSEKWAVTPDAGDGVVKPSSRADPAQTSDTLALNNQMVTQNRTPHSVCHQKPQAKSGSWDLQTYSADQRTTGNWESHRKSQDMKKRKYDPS

[15] = target: Fatty acid synthase (Homo sapiens, UniProt P49327); assay: FAS thioesterase domain inhibitors, dose response, biochemical, kinetic fluorescence intensity (AID 624326); format: functional;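 also: rate of fluorescence rise from hydrolysis of a fluorogenic O-methyl fluorescein ester substrate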
[16] = target: Melanocortin receptor 4 (Homo sapiens, UniProt P32245); format: functional, cell-based;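 also: Cell-based assay with luminescence read-out, confirmatory dose-response testing for agonist activity of biased ligands at MC4R; human U2OS cells with tagged receptor and beta-arrestin; potency of agonists that increase receptor coupling to beta-arrestin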
Sequence of Melanocortin receptor 4 (P32245 whole entry): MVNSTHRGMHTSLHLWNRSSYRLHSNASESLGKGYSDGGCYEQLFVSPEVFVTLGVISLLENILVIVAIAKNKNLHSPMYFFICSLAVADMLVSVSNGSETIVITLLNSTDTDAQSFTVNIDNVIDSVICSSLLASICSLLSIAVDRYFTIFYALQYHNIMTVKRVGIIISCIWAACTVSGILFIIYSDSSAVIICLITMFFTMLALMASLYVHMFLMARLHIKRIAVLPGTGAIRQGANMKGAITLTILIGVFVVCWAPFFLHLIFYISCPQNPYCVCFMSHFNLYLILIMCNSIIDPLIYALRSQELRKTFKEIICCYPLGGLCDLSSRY

[17] = MC4R antagonists, dose response, counter-screen for LGR2 antagonist project, cell-based, plate reader, cherry pick (AID 743444); format: functional;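 also: transfected HEK 293 cells stimulated with alpha-MSH peptide; potency of inhibitors of the alpha-MSH evoked signal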
[18] = LGR2 antagonists, dose response, cell-based, HEK293, CRE-luciferase reporter, cherry pick, set 2 (AID 743343); format: functional;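 also: transfected cells were stimulated with diluted bursicon conditioned medium after compound addition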
[19] = HepG2 cell cytotoxicity, dose response, cytotoxicity control, plate reader, cherry-pick, antagonist series (AID 743416); format: functional, cell-based
[20] = Luminescence Cell-Based Dose Retest to Confirm Inhibitors of Cancer Stem Cells. [Related pubchem assays (depositor defined):AID2717, AID2721]; format: functional; conditions: Homo sapiens
[21] = target: T6, Low molecular weight phosphotyrosine protein phosphatase (Homo sapiens, UniProt P24666); format: functional; conditions: read-out: IC50_Mean;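 also: Dose-response confirmation assay measuring inhibition of LMPTP enzyme activity by fluorescence intensity read-out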
T6 sequence (P24666 whole entry): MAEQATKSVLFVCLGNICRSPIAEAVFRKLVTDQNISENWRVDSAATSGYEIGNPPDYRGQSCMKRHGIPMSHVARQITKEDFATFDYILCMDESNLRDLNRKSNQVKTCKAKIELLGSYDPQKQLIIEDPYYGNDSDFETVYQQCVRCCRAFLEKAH

[22] = HEK293 cell cytotoxicity, dose response, cytotoxicity control, plate reader, cherry-picked samples (AID 743446); format: functional, cell-based
[23] = A549 cell cytotoxicity, dose response, cytotoxicity control, plate reader, cherry-pick, antagonist series (AID 743412); format: functional, cell-based
[24] = test system: INS1; assay: beta cell apoptosis inhibitors, cytokine rescue, dose response, luminescence, retest (AID 449756); format: functional, cell-based; conditions: Rattus norvegicus;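 also: cell death triggered by IL-1 beta plus TNF-alpha plus IFN-gamma mixture; protective hits raise ATP signal compared with cytokine alone wells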
[25] = inhibitors of PGC1a acetylation in cells, dose response, cell-based, cherry-picked samples (AID 720514); format: functional;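 also: potency may reflect raised or lowered acetylation signal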

T1 sequence (P41145 whole entry): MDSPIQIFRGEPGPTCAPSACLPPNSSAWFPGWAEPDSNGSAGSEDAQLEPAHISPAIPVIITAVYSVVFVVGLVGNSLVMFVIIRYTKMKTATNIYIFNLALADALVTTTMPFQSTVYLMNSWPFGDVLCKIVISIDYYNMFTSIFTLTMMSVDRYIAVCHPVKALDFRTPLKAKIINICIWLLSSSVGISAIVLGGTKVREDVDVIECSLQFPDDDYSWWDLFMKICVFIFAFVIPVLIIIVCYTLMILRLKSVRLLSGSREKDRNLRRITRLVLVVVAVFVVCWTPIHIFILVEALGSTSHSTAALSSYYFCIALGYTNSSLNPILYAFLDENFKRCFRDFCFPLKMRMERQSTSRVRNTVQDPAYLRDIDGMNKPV
Sequence of Beta-galactosidase (Q8VNN2 whole entry): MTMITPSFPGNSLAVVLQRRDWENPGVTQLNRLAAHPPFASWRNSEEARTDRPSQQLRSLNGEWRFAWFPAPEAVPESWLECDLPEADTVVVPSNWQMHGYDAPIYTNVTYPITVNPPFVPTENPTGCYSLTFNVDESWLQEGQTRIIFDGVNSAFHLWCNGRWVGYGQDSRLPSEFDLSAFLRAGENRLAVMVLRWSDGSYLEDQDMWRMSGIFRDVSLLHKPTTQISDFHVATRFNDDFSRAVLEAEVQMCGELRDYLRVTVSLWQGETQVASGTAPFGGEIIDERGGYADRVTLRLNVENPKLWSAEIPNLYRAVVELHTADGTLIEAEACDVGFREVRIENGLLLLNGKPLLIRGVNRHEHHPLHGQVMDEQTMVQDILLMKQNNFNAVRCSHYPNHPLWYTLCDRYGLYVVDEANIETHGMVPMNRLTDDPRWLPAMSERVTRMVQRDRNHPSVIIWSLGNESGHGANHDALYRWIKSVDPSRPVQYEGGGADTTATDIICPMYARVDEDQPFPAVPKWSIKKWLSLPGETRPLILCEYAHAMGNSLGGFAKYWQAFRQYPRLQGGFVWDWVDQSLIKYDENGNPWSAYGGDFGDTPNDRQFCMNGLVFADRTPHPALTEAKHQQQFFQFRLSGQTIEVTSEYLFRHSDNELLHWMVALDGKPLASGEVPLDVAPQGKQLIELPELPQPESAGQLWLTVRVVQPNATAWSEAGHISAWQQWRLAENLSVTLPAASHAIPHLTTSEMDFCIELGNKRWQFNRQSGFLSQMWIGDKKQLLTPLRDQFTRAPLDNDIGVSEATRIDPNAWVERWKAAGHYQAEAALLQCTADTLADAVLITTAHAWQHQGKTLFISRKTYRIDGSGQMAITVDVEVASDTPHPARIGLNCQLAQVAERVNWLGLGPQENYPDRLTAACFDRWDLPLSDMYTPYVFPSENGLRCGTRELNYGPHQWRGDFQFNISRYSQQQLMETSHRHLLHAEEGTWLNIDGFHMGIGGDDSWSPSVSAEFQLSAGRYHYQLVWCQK

With `Cc1nn(-c2ccccc2)c(O)c1/C=N/N1C(=O)c2cccc3cccc(c23)C1=O` the IC50 [1] was 10.3 µM (active), the EC50 [2] was > 31.5 µM (inactive) and the CC50 [3] was > 25 µM (active). It also gave an IC50 [4] of over 32 µM.
For `COc1cccc(/C=C/C(=O)NNC(=O)c2ccccc2)c1OC`, the IC50 [5] was > 67.6 µM (inactive) and the IC50 [6] was > 67.6 µM (inactive).
In the case of `O=C(c1ccc(C[S+]([O-])c2ccccc2Cl)o1)N1CCN(C2CCCCC2)CC1` (configuration not stated), the IC50 [5] is reported as > 67.5 µM (inactive) and the IC50 [6] is reported as > 67.5 µM (inactive).
With `Nc1n[nH]c(N2CCN(Cc3ccccc3)CC2)n1` the EC50 [7] was 92.5 µM (inactive) and the EC50 [8] was 5.59 µM (active).
With `Cc1cccc(-c2nc(CN3CCCC(C(=O)NC4CCCCCC4)C3)c(C)o2)c1` (configuration not stated) the IC50 [9] was 7.19 µM (active) and the EC50 [10] was 5.56 µM (active).
In the case of `Cn1c(C(=O)N2CCc3ccccc3C2)cc2oc3ccccc3c21`, the IC50 [9] is reported as 6.99 µM (active).
For `OC[C@H]1O[C@H](c2nc(-c3nc(-c4cccs4)no3)cs2)C[C@@H]1O`, the IC50 [5] was > 67.5 µM (inactive) and the IC50 [6] was > 67.5 µM (inactive).
In the case of `Cc1ccc(-n2ncc3c(SCc4ccccn4)ncnc32)c(C)c1`, the CC50 [3] is reported as > 25 µM (active) and the IC50 [11] is reported as 1.6 µM (active).
In the case of `COc1ccc(Cc2c(-c3ccc(OC)c(OC)c3)nc3c(C)cc(Br)cn23)c(C)c1`, the AC50 [12] is reported as 14.8 µM (active), the AC50 [13] is reported as 6.62 µM (active) and the AC50 [14] is reported as 15.5 µM (active).
For `O=C(CC(c1ccccc1)c1ccccc1)NCC(O)c1ccc([N+](=O)[O-])cc1` (configuration not stated), the IC50 [15] was 13.5 µM (active).
In the case of `CCSc1nnc(NC(=O)c2csc3c2CCCC3)s1`, the EC50 [16] is reported as > 89.2 µM (inactive).
In the case of `CC(=O)Nc1cc(-c2cccc(NS(C)(=O)=O)c2)cn2c(-c3ccccc3)cnc12`, the EC50 [16] is reported as > 89.2 µM (inactive).
In the case of `O=C(Nc1ccc(Cl)cc1)Nc1nnc(-c2ccncc2)s1`, the AC50 [17] is reported as 1.74 µM (active), the AC50 [18] is reported as 3.51 µM (active) and the AC50 [19] is reported as 5.88 µM (active). For the same compound, the AC50 [20] was 1.17 µM (active), the IC50 [21] was 30.6 µM (inactive) and the AC50 [22] was 2.98 µM (active). For the same compound, the AC50 [23] was 15.5 µM (active) and the AC50 [24] was 3.54 µM (active).
For `Nc1nc(CN2CCN(c3ccccn3)CC2)nc(Nc2ccc(Cl)cc2)n1`, the EC50 [7] was 92.5 µM (inactive) and the EC50 [8] was 1.51 µM (active).
For `COc1ccc(-n2nc(C#N)c(Cl)cc2=O)cc1`, the AC50 [25] was 3.52 µM (active), the IC50 [1] was 7.21 µM (active) and the EC50 [2] was > 31.5 µM (inactive). It also gave an IC50 [4] of 14 µM.
With `N#C/C(=C\c1cn(CCOc2ccccc2)c2ccccc12)C(=O)NCc1ccco1` the EC50 [16] was > 89.2 µM (inactive).
For `Clc1ccccc1CN1CCN(c2ccccc2)CC1`, the EC50 [7] was 92.5 µM (inactive) and the EC50 [8] was 0.553 µM (active).
In the case of `CC(=O)c1ccc(C(=O)N2CCCC(Nc3ccccc3)C2)s1` (configuration not stated), the AC50 [13] is reported as 5.18 µM (active).
In the case of `O=C(NCc1ccco1)c1ccc(-c2ccc3nccn3c2)cc1`, the AC50 [13] is reported as 1.64 µM (active).
